Measurements from patent US10449248B2, “Nutritional composition for improving the mammalian immune system” (N.V. Nutricia, priority 2008, dated 2019).

System: HepG2 cells
Assay: Glutathione content of HepG2 cells with or without glutathione precursor amino acids
Type: cell-based
Conditions: in vitro model of normal liver, FIG. 4

N[C@@H](CS)C(=O)O [cysteine]
effect on the glutathione homeostasis in liver HepG2 cells: positive effect

NC(=O)CC[C@H](N)C(=O)O [glutamine]
effect on the glutathione homeostasis in liver HepG2 cells: positive effect
